One series deals with T1, Orx2 (Homo sapiens, UniProt O43614).
T1 construct: DiscoverX
T1 sequence (O43614 1-444): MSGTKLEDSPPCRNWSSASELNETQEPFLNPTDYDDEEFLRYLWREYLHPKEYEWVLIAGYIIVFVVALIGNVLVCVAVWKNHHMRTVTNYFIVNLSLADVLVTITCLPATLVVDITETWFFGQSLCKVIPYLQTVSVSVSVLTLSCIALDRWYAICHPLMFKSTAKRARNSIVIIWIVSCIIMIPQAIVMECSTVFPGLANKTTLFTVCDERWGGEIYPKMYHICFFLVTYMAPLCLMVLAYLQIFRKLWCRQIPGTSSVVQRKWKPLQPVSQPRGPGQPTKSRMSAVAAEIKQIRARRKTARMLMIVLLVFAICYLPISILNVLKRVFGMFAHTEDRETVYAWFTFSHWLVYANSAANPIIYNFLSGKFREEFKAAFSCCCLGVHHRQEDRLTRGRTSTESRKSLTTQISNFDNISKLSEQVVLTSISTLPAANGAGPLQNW
Description: Orx2 antagonist screening, chemiluminescent cell assay with Orexin B EC80. Conditions: for % Agonism Orx2 at Relative IC50: absolute percent agonism at the μM concentration of the relative OR2 IC50; for IC50: antagonist mode against Orexin B EC80, read-out: Relative IC50 of Orx2; for IC50 Dilution of Orx2 (fold dilution): concentration of the fraction of the plant source, in fold dilution, needed to achieve IC50 of OR2. The class given is cell-based. Here is the method:
For this example, the following protocol was used: 1.) seed cells in 20 μL Cell Plating Reagent; 2.) incubate cells overnight at 37° C. and 5% CO2; 3.) treat cells with 2.5 μL 10× antagonist prepared in Compound Dilution Buffer (For OR2 screening, 2.5 μL of 1:100 natural product sample in DiscoverX cell plating reagent. Control antagonist, Seltorexant, 10× stock was prepared at 1500 nM); 4.) incubate for 30 minutes at 37° C. and 5% CO2; 5.) treat cells with 2.5 μL 10× agonist prepared in Compound Dilution Buffer (For OR2 screening, 2.5 μL of 10× Orexin B EC80, 252.7 nM); 6.) incubate for 90 minutes at 37° C. and 5% CO2; 7.) add 12.5 μL Working Detection Solution; 8.) incubate for 1 hour at room temperature in the dark; and 9.) read chemiluminescent signal.
(§1) The plants described herein were tested to determine the concentration, in μM, to achieve the relative IC50 of OR2 receptor, the absolute percent agonism achieved at the μM concentration of the relative OR2 IC50, the percentage receptor activity at the concentration, in μM, needed to achieve IC50 in OR2, the percentage cell viability, measured by XTT assay, at the IC50 μM concentration, the concentration of the fraction, in fold dilution, needed to achieve IC50 of OR2, and the percentage receptor activity at the concentration of the fraction, in fold dilution, needed to achieve IC50 of OR2.

Another series has as its target T2, Orx1 (Homo sapiens, UniProt O43613).
T2 sequence (O43613 1-425): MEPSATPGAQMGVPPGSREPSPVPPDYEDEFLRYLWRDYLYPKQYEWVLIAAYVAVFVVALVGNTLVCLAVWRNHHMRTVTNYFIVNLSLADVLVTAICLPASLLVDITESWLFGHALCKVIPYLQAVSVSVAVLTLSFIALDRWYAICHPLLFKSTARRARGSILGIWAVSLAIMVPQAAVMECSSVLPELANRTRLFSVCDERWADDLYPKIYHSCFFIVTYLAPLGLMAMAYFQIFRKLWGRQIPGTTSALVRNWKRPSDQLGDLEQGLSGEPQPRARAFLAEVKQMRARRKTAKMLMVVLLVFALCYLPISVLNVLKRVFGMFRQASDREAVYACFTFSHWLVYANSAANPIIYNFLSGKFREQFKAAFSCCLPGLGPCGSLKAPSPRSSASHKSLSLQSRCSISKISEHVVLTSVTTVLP
Put plainly: % agonism on Orx1 at the OR2 IC50 concentration. The class given is cell-based. Conditions: at the μM concentration needed to achieve IC50 in OR2. Here is the method: For this example, the following protocol was used: 1.) seed cells in 20 μL Cell Plating Reagent; 2.) incubate cells overnight at 37° C. and 5% CO2; 3.) treat cells with 2.5 μL 10× antagonist prepared in Compound Dilution Buffer (For OR2 screening, 2.5 μL of 1:100 natural product sample in DiscoverX cell plating reagent.
as §1

In a further series the test system is cells. Description: cell viability, XTT assay. Conditions: at the IC50 μM concentration of the compound. The class given is cell-based. Here is the method:
as §1
In general terms: Tetrazolium dyes change colour on reduction, which living cells bring about.

The subject of another series is male Sprague-Dawley rat. Description: in vivo tolerability, dose escalation, adverse effect observation. Conditions: for 15 min effects (adverse effects) / 30 min effects (adverse effects) / 60 min effects (adverse effects): n=3 rats, (x/3) animals affected. Here is the method: In this example, the in vivo tolerability of Compounds 26, 21, 29, and 13 was assessed.
Naïve rats (male Sprague-Dawley rat) were acclimatized to the procedure room in their home cages up to 7 days following arrival to the test facility, with food and water available ad libitum. On the day of experiment, animals were acclimatized to the experimental room for at least one hour prior to the beginning of any experiment. All animals were tail marked, weighed and randomly assigned to treatment groups. The animals (n=3 per dose) were treated with either Compounds 26, 21, 29, and 13 (10 mL/kg, p.o.). For each compound a maximum of 4 doses were tested using a dose escalation procedure starting from 30 mg/kg. If this initial dose is well-tolerated, the dosage is increased to 100 mg/kg. If the 30 mg/kg dose is not tolerated, the dose is reduced to 15 mg/kg. Following the dose escalation procedure, if the 100 mg/kg dose is well-tolerated, the dose is escalated to 315 mg/kg. If it is not tolerated, the dose is decreased to 60 mg/kg. The pattern continues with the next decision point: if 315 mg/kg is well-tolerated, the dose is increased to the maximum of 500 mg/kg. If 315 mg/kg is not tolerated, the dose is decreased to 200 mg/kg.
The compounds would be considered not tolerated if three or more adverse effects (or any severe adverse effect) occurred at specific dose during the entire period of 60 mins. […] Mild—slight decrease in activity, responsive when provoked. Moderate—decrease in activity, less responsive when provoked.

This note sets out measurements from patent US20250281451A1, “COMPOSITIONS AND METHODS FOR MODULATING SLEEP AND USES THEREOF” (Brightseed, Inc., priority 2022, published 2025).

“Also recorded” adds a separate entry of the source.

For `O=c1c(O)c(-c2ccc(O)cc2)oc2cc(O)cc(O)c12` [Compound 12, 3,5,7-trihydroxy-2-(4-hydroxyphenyl)chromen-4-one], at Orx2, the “% Agonism Orx2 at Relative IC50” value was found to be 65%, the IC50 is 53.3 µM and the “IC50 Dilution of Orx2 (fold dilution)” value was determined as 7039.1 fold dilution. For the same compound, the “% Agonism on Orx1 at OR2 IC50” value at Orx1 stood at 64.4%. Also, the “% Cell viability at IC50” value in the series on cells turned out to be 80.39%.

For the compound `COc1c(O)cc2oc(-c3ccc(O)cc3)c(OC)c(=O)c2c1O` [Compound 14, 5,7-dihydroxy-2-(4-hydroxyphenyl)-3,6-dimethoxychromen-4-one], at Orx2, the “% Agonism Orx2 at Relative IC50” value was 50%, the IC50 worked out at 89 µM and the “IC50 Dilution of Orx2 (fold dilution)” value is listed as 3466.5 fold dilution. Moreover, the “% Agonism on Orx1 at OR2 IC50” value at Orx1 is reported as 62.98%. For the same compound, in the series on cells, the “% Cell viability at IC50” value turned out to be 94.58%.

As to `C[C@@H]1O[C@@H](OC[C@H]2O[C@@H](Oc3c(-c4ccc(O)c(O)c4)oc4cc(O)cc(O)c4c3=O)[C@H](O)[C@@H](O)[C@@H]2O)[C@H](O)[C@H](O)[C@H]1O` [Compound 15, 2-(3,4-dihydroxyphenyl)-5,7-dihydroxy-3-[(2S,3R,4S,5S,6R)-3,4,5-trihydroxy-6-[[(2R,3R,4R,5R,6S)-3,4,5-trihydroxy-6-methyloxan-2-yl]oxymethyl]oxan-2-yl]oxychromen-4-one], on Orx2, the “% Agonism Orx2 at Relative IC50” value amounted to 65%, the IC50 was found to be 79.1 µM and the “IC50 Dilution of Orx2 (fold dilution)” value was 2283.9 fold dilution. The “% Agonism on Orx1 at OR2 IC50” value at Orx1 was 67.71%. In addition, in the series on cells, the “% Cell viability at IC50” value is listed as 103.46%.

As to `COc1ccc(C(=O)CCc2ccc(O)cc2)c(O)c1` [Compound 16, 1-(2-hydroxy-4-methoxyphenyl)-3-(4-hydroxyphenyl)propan-1-one], at Orx2, the “% Agonism Orx2 at Relative IC50” value is recorded as 75%, the IC50 is 381 µM and the “IC50 Dilution of Orx2 (fold dilution)” value worked out at 5786.9 fold dilution. For the same compound, the “% Agonism on Orx1 at OR2 IC50” value at Orx1 is 77.95%. In addition, the “% Cell viability at IC50” value with cells is 85.11%.

On to `O=C(CCc1ccc(O)cc1)c1ccc(O)cc1OC1OC(CO)C(O)C(O)C1O` (centres unmarked) [Compound 17, 3-(4-hydroxyphenyl)-1-[4-hydroxy-2-[3,4,5-trihydroxy-6-(hydroxymethyl)oxan-2-yl]oxyphenyl]propan-1-one], for which, at Orx2, the “% Agonism Orx2 at Relative IC50” value is 80%, the IC50 came to 188 µM and the “IC50 Dilution of Orx2 (fold dilution)” value worked out at 5786.9 fold dilution. In addition, on Orx1, the “% Agonism on Orx1 at OR2 IC50” value was found to be 100.52%. Also, in the series with cells, the “% Cell viability at IC50” value came out at 89.87%.

For the compound `O=C(CCc1ccc(O)cc1)c1ccc(OC2OC(CO)C(O)C(O)C2O)cc1O` (centres unmarked) [Compound 19, 3-(4-hydroxyphenyl)-1-[2-hydroxy-4-[3,4,5-trihydroxy-6-(hydroxymethyl)oxan-2-yl]oxyphenyl]propan-1-one], at Orx2, the “% Agonism Orx2 at Relative IC50” value is reported as 80%, the concentration for half-maximal inhibition (IC50) worked out at 319 µM and the “IC50 Dilution of Orx2 (fold dilution)” value was determined as 5786.9 fold dilution. Moreover, the “% Agonism on Orx1 at OR2 IC50” value at Orx1 was 68.74%. Besides, the “% Cell viability at IC50” value in the series with cells turned out to be 86.12%.

Regarding `O=C(O)[C@H]1O[C@@H](Oc2c(-c3ccc(O)cc3)oc3cc(O)cc(O)c3c2=O)[C@H](O)[C@@H](O)[C@@H]1O` [Compound 20, (2S,3S,4S,5R,6S)-6-[5,7-dihydroxy-2-(4-hydroxyphenyl)-4-oxochromen-3-yl]oxy-3,4,5-trihydroxyoxane-2-carboxylic acid], at Orx2, the “% Agonism Orx2 at Relative IC50” value was found to be 45% and the IC50 amounted to 146 µM. Further, in the series on cells, the “% Cell viability at IC50” value was 83.58%.

As for `C[C@@H]1O[C@@H](O[C@H]2[C@H](Oc3c(-c4ccc(O)cc4)oc4cc(O)cc(O)c4c3=O)O[C@H](CO)[C@@H](O)[C@@H]2O)[C@H](O)[C@H](O)[C@H]1O` [Compound 23, 3-[(2S,3R,4S,5S,6R)-4,5-dihydroxy-6-(hydroxymethyl)-3-[(2S,3R,4R,5R,6S)-3,4,5-trihydroxy-6-methyloxan-2-yl]oxyoxan-2-yl]oxy-5,7-dihydroxy-2-(4-hydroxyphenyl)chromen-4-one], on Orx2, the “% Agonism Orx2 at Relative IC50” value was found to be 50% and the IC50 was determined as 174 µM. In addition, the “% Agonism on Orx1 at OR2 IC50” value on Orx1 is reported as 104.1268%. In the series on cells, the “% Cell viability at IC50” value is 107.68%.

As to `O=c1c(O)c(-c2ccc(O)c(O)c2)oc2cc(O)cc(O)c12` [Compound 29, 2-(3,4-dihydroxyphenyl)-3,5,7-trihydroxychromen-4-one], the “15 min effects (adverse effects)” value in the series on male Sprague-Dawley rat (30 mg/kg p.o.) is listed as “No adverse effects”; with male Sprague-Dawley rat (100 mg/kg p.o.), “Reduced activity”; in the series with male Sprague-Dawley rat (315 mg/kg p.o.), “Reduced activity”; with male Sprague-Dawley rat (500 mg/kg p.o.), “Pica (1/3)”. Further, the “30 min effects (adverse effects)” value in the series on male Sprague-Dawley rat (30 mg/kg p.o.) is recorded as “No adverse effects”; in the series with male Sprague-Dawley rat (100 mg/kg p.o.), “No adverse effects”; in the series with male Sprague-Dawley rat (315 mg/kg p.o.), “Reduced activity; also recorded: Pica (2/3)”; with male Sprague-Dawley rat (500 mg/kg p.o.), “Pica (2/3)”. Further, the “60 min effects (adverse effects)” value in the series with male Sprague-Dawley rat (30 mg/kg p.o.) is given as “No adverse effects”; in the series with male Sprague-Dawley rat (100 mg/kg p.o.) it was “No adverse effects”; with male Sprague-Dawley rat (315 mg/kg p.o.), “Reduced activity (3/3)”; in the series with male Sprague-Dawley rat (500 mg/kg p.o.), “No adverse effects”. Moreover, the tolerability result in the series with male Sprague-Dawley rat (all four doses (30, 100, 315 and 500 mg/kg) p.o., 60 min observation) is on record as “well-tolerated”.

Broadly, the IC50 is the concentration that gives 50% inhibition.
